Experimental data reported in US20050203063A1, “Proteasome pathway inhibitors and related methods” (priority 2003, published 2005).
Read-outs that look alike come from different tables or passages of the source. Where a SMILES comes first, the peptide text is derived from it. The star is where a group is joined. Cbz = O=C(OCc1ccccc1)*

Key:
[1] = tested on: cyclin-luciferase (cyc-luc) turnover, APC/C activation; assay: cyc-luc turnover in interphase Xenopus extracts induced to enter mitosis by non-degradable cyclin B; format: biochemical
Protocol: (§1) FIG. 1. Functional classification of inhibitors. Compounds that scored in the initial screen were reacquired as dry powders and retested in Xenopus extracts in 4 assays at 200 μM concentration (32) as described (6). […] (A) Compounds and cyclin-luciferase were added to interphase extracts, which were then induced to enter mitosis by addition of non-degradable cyclin B. Percent inhibition of cyc-luc turnover by each compound is coded according to the grayscale shown at the bottom of the figure; specific values are available in Table 1. (B) Extracts were pre-treated with non-degradable cyclin B to allow entry into mitosis prior to addition of test compound and reporter protein. (C) Interphase extracts were treated by addition of recombinant Cdh1 to activate cyc-luc turnover. (D) Interphase extracts were treated with recombinant axin to induce turnover of β-catenin-luciferase.
(§2) The “Cmpd” column corresponds to the numbers used in FIG. 1; “Class” refers to the class of inhibitor described in FIG. 1 and the text. Columns A-D show percent inhibition in the four assays described in FIG. 1. (A) Interphase extracts (B) Mitotic extracts (C) Interphase extracts stimulated with Cdh1 (D) Degradation of a β-catenin reporter protein in interphase extracts stimulated with recombinant axin. […] “ID#” refers to the identification number of the inhibitor obtained from the NCI (prefaced by NSC) or Chembridge (prefaced by C).
Extracts were rapidly thawed and diluted to a final concentration of 75% in extract buffer (XB) just prior to assay (XB; 100 mM KCl, 0.1 mM CaCl2, 1 mM MgCl2, 10 mM potassium HEPES, pH 7.7, 50 mM sucrose). Extracts were kept on ice and supplemented with 1 mg/ml bovine ubiquitin (Sigma) unless otherwise stated. Cyc-luc expressed in reticulocyte lysate was diluted 1/200 for most assays. High-throughput screening utilized the bacterially expressed and purified cyclin-luc fusion protein, which was added to extracts at a final concentration of 0.1 μg/ml. To induce entrance into mitosis, cyclin BΔ90 protein was added to a final concentration of 10 μg/ml. For the dose response analysis, inhibitors were purchased from Calbiochem (San Diego, Calif.) and dissolved in DMSO as 10 mM stocks. Cyclin-luciferase and cyclin BΔ90 were mixed with interphase extract and placed on ice. Inhibitors were then added to extracts to yield a final DMSO concentration of 1%. 10 μl aliquots of extract were distributed into 384-well white Cliniplates (Labsystems), and cell cycle progression was initiated by warming the samples to room temperature. After 60 minutes, 30 μl of luciferin reagent (20 mM tricine pH 7.8, 470 μM D-Luciferin [Molecular Probes]), 270 μM Coenzyme A, 0.1 mM EDTA, 33 mM DTT, and 530 μM ATP) was added using a multidrop dispenser (Labsystems). Luminescence was measured on an Analyst plate reader (LJL Biosystems). The values for 3 replicates were averaged. For the dose response analysis, percent inhibition was calculated as 100*(T−M)/(I−M) where T equals the test value for the inhibitor, M equals the value in a mitotic extract lacking inhibitor, and I equals the value in an interphase extract. For certain experiments, methylated ubiquitin was added to interphase extracts at a concentration of 1 mg/ml in the presence or absence of added unmodified ubiquitin (1 mg/ml) used as competitor. Cyclin-luciferase and cyclin BΔ90 were then added. After 60 minutes, the reactions were stopped and analyzed as described above.
Dry compounds were redissolved at 20 mM concentration in DMSO, or a 50:50 water:DMSO mixture in certain cases. These compounds were then diluted ten-fold in XB and mixed thoroughly. For the assay in FIG. 1A, chilled interphase extract was mixed with cyclin BΔ90 (10 μg/ml) and cyc-luc (0.1 μg/ml) in bulk and then 27 μl of extract was pipetted to each well of a chilled 384-well plate.

[2] = tested on: cyclin-luciferase (cyc-luc) turnover, activated APC/C; assay: cyc-luc turnover in mitotic Xenopus extracts (pre-treated with non-degradable cyclin B); format: biochemical
Protocol: as §1, §2
(§3) Dry compounds were redissolved at 20 mM concentration in DMSO, or a 50:50 water:DMSO mixture in certain cases. These compounds were then diluted ten-fold in XB and mixed thoroughly. For the assay in FIG. 1A, chilled interphase extract was mixed with cyclin BΔ90 (10 μg/ml) and cyc-luc (0.1 μg/ml) in bulk and then 27 μl of extract was pipetted to each well of a chilled 384-well plate. Three microliters of each compound (diluted in XB) was then added to each well, and then compounds mixed thoroughly. Plates were warmed to room temperature. After 70 minutes, 5 μl aliquots were transferred to another plate, and then 30 μl of luciferin reagent was added to each well and luminescence measured. Percent inhibition was calculated as described above. The reported values represent the average of three independent measurments. For the assay in FIG. 1B, interphase extracts were treated with 10 μg/cyclin B 90 for 50 minutes at room temperature and then chilled on ice. Cyc-luc was then added, and then 27 μl of extract was pipetted to each well of a chilled 384-well plate. Three microliters of each compound (diluted in XB) was then added to each well, and then compounds mixed thoroughly. Plates were warmed to room temperature. After 60 minutes, 5 μl aliquots were transferred to another plate, and then 30 μl of luciferin reagent was added to each well and luminescence measured. For the assay in FIG. 1C, recombinant Cdh1 (0.1 μg/ml) and cyc-luc were added to chilled interphase extracts. Extracts were then pipetted and compounds added as above. Plates were warmed to room temperature and incubated for three hours, following which luminescence was measured as above. For the assay in FIG. 1D, chilled interphase extracts received recombinant axin and beta-catenin-luciferase reporter as described (8). Extracts were aliquoted to chilled plates and compounds distributed as described above. Plates were warmed to room temperature, incubated for three hours, and luminescence measured.

[3] = tested on: Cdh1-stimulated cyc-luc proteolysis (APC/C); assay: cyc-luc turnover in interphase Xenopus extracts stimulated with recombinant Cdh1; format: biochemical
Protocol: as §1, §2, §3

[4] = tested on: β-catenin-luciferase turnover (substrate of the SCFβ-TRCP ubiquitin ligase); assay: β-catenin-luciferase turnover in interphase Xenopus extracts stimulated with recombinant axin; format: biochemical
Protocol: as §1, §2, §3

[5] = tested on: HEK-293 cells stably expressing GFP-AR; assay: Protac-induced GFP-AR degradation in microinjected HEK-293 cells; format: cell-based; conditions: microinjection, 100 nM
Protocol: The results are representative of experiments performed on 3 separate days.
The effect of ubistatin A on protein degradation within intact mammalian cells was also evaluated (FIG. 4). Since the negative charge of the molecule was predicted to preclude efficient entry into the cell, compound was introduced by microinjection.
HEK-293 cells stably transfected with a plasmid that expresses GFP-AR were microinjected with 0.2 pl (5-10% of cell volume) of a 200 mM KCl solution containing 10 μM Protac and 50 mg/ml rhodamine dextran (MW 10,000 Da).

[6] = 200 μM compound, added to interphase extracts then induced to enter mitosis, average of three measurements
[7] = 200 μM compound, extracts in mitosis before addition of compound
[8] = 200 μM compound, negative values reflect stimulation of proteolysis

Compound	percent inhibition of cyc-luc turnover, (A) Interphase extracts [1, 6] [%]	percent inhibition of cyc-luc turnover, (B) Mitotic extracts [2, 7] [%]	percent inhibition of cyc-luc turnover, (C) Interphase extracts stimulated with Cdh1 [3, 8] [%]	percent inhibition, (D) Degradation of a β-catenin reporter protein in interphase extracts stimulated with recombinant axin ([4]; 200 μM compound) [%]	further results
O/N=C(/C=N/O)SCCSC(/C=N/O)=N/O [Compound 77]	100	4	−12	0	–
O[Si](c1ccccc1)(c1ccccc1)c1ccccc1.O[Si](c1ccccc1)(c1ccccc1)c1ccccc1.O[Si](c1ccccc1)(c1ccccc1)c1ccccc1.[O]=[V] [Compound 61]	77	8	−8	2	–
Nc1ncnc2c1ncn2C1OC2COP(=O)(O)OC2C1O (stereo not shown) [Compound 34]	–	–	–	–	percent inhibition of cyc-luc turnover, (A) Interphase extracts ([1]; 200 µM): 100%; percent inhibition of cyc-luc turnover, (B) Mitotic extracts ([2]; 200 µM): 0%; percent inhibition of cyc-luc turnover, (C) Interphase extracts stimulated with Cdh1 ([3]; 200 µM): −8%; percent inhibition, (D) Degradation of a β-catenin reporter protein in interphase extracts stimulated with recombinant axin ([4]; 200 µM): 6%
CC(C)C[C@@H](C=O)NC(=O)[C@H](CC(C)C)NC(=O)[C@H](CC(C)C)NC(=O)OCc1ccccc1 [MG132, reference compound] (Cbz-Leu-Leu-Leu-aldehyde)	–	–	–	–	effect on loss of cyc-luc activity / activation of latent APC/C activity (in words) ([1]; assay validation, inhibitor added to interphase extract before mitotic entry): partially inhibited
Nc1ncnc2c1c(Cl)cn2[C@@H]1O[C@H](CO)[C@@H](O)[C@H]1O [Compound 39]	100	9	−7	67	–
ON=c1[nH]cnc2[nH]cc(Br)c12 [Compound 40]	42	0	−6	3	–
Nc1ncnc(Nc2ccc(S(N)(=O)=O)cc2)n1 [Compound 25]	66	3	−6	0	–
NC(=O)c1ncn(C2OC(CO)C(O)C2O)c1C(N)=O (stereo not shown) [Compound 82]	100	0	0	0	–
O=S(=O)(O)c1ccc2c(/N=N/c3ccccc3)c(O)ccc2c1 [Compound 18]	73	4	−7	0	–
O=C1c2ccccc2C2=NNC3=C(S(=O)(=O)O)C=CC1C23 (stereo not shown) [Compound 10]	33	0	−4	21	–
O=C(NNC(=S)NC(=O)C12CC3CC(CC(C3)C1)C2)c1ccncc1 [Compound 13]	75	0	−9	0	–
CC[C@H](C)[C@H](NC(=O)[C@H]([C@@H](C)CC)N(C)C(C)=O)C(=O)N[C@H](C(=O)N[C@@H](CC(C)C)C(=O)[C@@]1(C)CO1)[C@@H](C)O [epoxomicin]	–	–	–	–	block of Protac-X induced loss of GFP-AR [5]: completely blocked
N#Cc1c(NN)n(C2OC(CO)C(O)C2O)c2ncnc(N)c12 (stereo not shown) [Compound 51]	100	0	0	30	–
CC[C@H](CO)Nc1nc(NCc2ccccc2)c2ncn(C(C)C)c2n1 [roscovitine, reference compound]	–	–	–	–	effect on loss of cyc-luc activity / activation of latent APC/C activity (in words) [1]: blocked; effect on cyc-luc proteolysis in mitotic extracts (in words) [2]: ineffective
CC(=O)Nc1ncnc2[nH]ncc12 [Compound 54]	54	3	−6	0	–
Nc1nc2c(c(=O)[nH]1)c1c(N)ncnc1n2C1OC(CO)C(O)C1O (stereo not shown) [Compound 57]	100	4	0	60	–
O=c1[nH]c(O)nc2cc3[nH]ncc3cc12 [Compound 62]	84	0	−8	0	–
O=c1[nH]cnc2c1ccc1[nH]ncc12 [Compound 67]	53	3	−8	3	–
